We go through one molecule from patent publication US12077508B2, “Inhibitors of the Notch transcriptional activation complex kinase (“NACK”) and methods for use of the same” (UNIVERSITY OF MIAMI, priority 2018, dated 2024).

Test [1] addresses T1, NACK binding to the Notch transcription complex (Mus musculus, UniProt Q571I4).
T1 construct: expressed in transfected cells; host or cells: 293T
T1 sequence (Q571I4 1-1373): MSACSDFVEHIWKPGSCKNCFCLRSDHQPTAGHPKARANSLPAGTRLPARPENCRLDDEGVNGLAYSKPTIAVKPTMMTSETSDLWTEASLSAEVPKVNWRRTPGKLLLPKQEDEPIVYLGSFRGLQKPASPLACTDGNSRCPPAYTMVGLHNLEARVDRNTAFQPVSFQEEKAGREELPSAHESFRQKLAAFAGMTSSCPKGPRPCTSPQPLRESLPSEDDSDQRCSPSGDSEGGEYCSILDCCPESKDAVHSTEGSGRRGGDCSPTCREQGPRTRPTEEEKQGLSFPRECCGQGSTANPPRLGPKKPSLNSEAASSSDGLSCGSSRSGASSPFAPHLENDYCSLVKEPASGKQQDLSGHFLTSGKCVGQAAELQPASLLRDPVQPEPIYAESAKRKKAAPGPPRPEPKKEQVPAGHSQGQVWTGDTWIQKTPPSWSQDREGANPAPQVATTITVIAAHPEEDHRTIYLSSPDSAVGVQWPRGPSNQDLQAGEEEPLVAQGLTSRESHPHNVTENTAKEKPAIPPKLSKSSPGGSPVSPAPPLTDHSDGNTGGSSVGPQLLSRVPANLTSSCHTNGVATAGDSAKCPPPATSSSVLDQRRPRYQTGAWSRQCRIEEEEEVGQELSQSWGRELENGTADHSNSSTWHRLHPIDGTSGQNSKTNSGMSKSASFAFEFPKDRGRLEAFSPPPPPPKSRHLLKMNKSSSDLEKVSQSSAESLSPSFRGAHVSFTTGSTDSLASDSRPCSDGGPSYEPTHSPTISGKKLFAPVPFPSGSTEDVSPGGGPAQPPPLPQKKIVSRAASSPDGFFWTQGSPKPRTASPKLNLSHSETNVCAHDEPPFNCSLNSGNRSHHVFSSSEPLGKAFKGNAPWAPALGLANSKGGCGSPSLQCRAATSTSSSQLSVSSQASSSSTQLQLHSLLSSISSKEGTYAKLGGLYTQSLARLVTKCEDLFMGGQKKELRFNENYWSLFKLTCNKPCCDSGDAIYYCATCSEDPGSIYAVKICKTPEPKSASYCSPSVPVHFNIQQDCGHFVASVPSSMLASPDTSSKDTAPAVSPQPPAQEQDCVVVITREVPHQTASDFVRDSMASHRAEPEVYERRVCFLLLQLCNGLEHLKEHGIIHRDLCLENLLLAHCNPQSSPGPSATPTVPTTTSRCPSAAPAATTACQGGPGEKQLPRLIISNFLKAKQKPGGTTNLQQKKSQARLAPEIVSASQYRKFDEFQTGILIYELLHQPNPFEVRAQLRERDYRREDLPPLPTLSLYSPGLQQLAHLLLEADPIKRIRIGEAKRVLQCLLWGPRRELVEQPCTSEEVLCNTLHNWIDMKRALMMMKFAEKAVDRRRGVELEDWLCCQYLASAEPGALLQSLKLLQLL
Description: CSL-DNA affinity precipitation (CSL-DAP) assay. Type of test: cell-based. As to the method:
(§1) To determine the specificity of hit-to-lead compounds targeting NACK activity, it was evaluated whether iNACK can block NACK binding to the Notch complex by conducting CSL-DNA affinity precipitation (CSL-DAP) assay. […] In the CSL-DAP assay, 293T cells were co-transfected with N1^ICD, Maml1 and NACK. Transfections were performed using LipoJet transfection reagent (SL100468, SignaGen Laboratories) according to the manufacturer recommended protocol. After two days of transfection, cells were treated with compounds for 2 hours prior collecting the cell lysate. Cell lysates were incubated with DNA streptavidin beads. Proteins that bound to the beads were analyzed by Western blot.
(§2) Western blot was performed as described previously (See Weaver et al., Cancer Research 74, 4741-4751 (2014)). Primary antibodies were α-NACK (1:1,000; against aa209-287 of NACK and affinity purified), α-CSL (1:1,000; generated against full-length CSL and affinity purified), α-Maml1 (1:5,000; Cell Signaling Technology), α-cleaved-Notch1 (1:1,000; Cell Signaling Technology).

Test [2] deals with NACK binding to the Notch transcription complex. Kind of test: CSL-DNA affinity precipitation (CSL-DAP) assay. As to conditions: Y999F NACK and Q1024E NACK mutants (mouse NACK); FIG. 10D. In kind it is cell-based, mouse. As to the method:
as §1, §2

Test [3] relates to Notch target genes. Kind of test: RT-qPCR of Notch target genes in Notch/NACK-dependent cells. As to conditions: OE33; FIG. 6B. Type of test: cell-based, human. As to the method:
To assess the effect of NACK inhibitor on Notch target gene transcription, Notch/NACK-dependent cell lines were treated with NACK inhibitors. The cells were also treated with DAPT as a positive control. DMSO treated cells served as a vehicle control for comparison. Gene expression was normalized to HPRT, and TBP served as a negative control to validate normalization.
Reverse transcription and qPCR analysis were performed as described previously (See Weaver et al., Cancer Research 74, 4741-4751 (2014)). Gene expression was normalized to the TATA-binding protein (“TBP”) gene. As a control, hypoxanthine phosphoribosyltransferase 1 (“HPRT”) gene expression was also monitored.

The target of test [4] is T2, NACK (Mus musculus, UniProt Q571I4).
T2 sequence (Q571I4 1-1373): T1 sequence (Q571I4 1-1373)
Description: Surface plasmon resonance (SPR) binding to GST tagged NACK. To be noted: equilibrium approach, 1:1 binding model; 25° C.; FIG. 10A; read-out: KD. As to the method:
The interaction between inhibitor Z271-0326 and target NACK was characterized using surface plasmon resonance (SPR). For this purpose, GST tagged NACK was captured by a GST antibody that was previously immobilized onto the surface of the chip through standard amide coupling. The dissociation constants associated with binding of the compounds to NACK was determined using the equilibrium approach, which consists of plotting the equilibrium response (Req) as a function of concentration of the compound and fitting the data to a 1:1 binding model.
A GST capture kit (GE Healthcare) were utilized to covalently immobilize an anti-GST antibody, provided in the kit, to the sensor chip surface (CM5 chip, GE Healthcare) by following the manufacturer's instructions. Capture were performed by injecting GST-NACK (1 μg/μL) over the immobilized anti-GST antibody in Hepes buffer (10 mM Hepes, pH 7.5, 150 mM NaCl, 3 mM EDTA, 0.0005% NP-40) for 7 min at 10 μL/min. A reference flow cell was prepared by capturing GST following the procedure described above. […] Experiments were performed on a Biacore T200 instrument (GE Healthcare) at 25° C. Small molecule inhibitors binding to NACK were performed in 50 mM Tris buffer, pH 7.5, containing 150 mM NaCl, 10 mM MgCl2 and 5% DMSO (running buffer). The SPR signal arising from the sample was corrected for its respective control containing DMSO. Data visualization and analysis was performed using Biacore T200 software (GE Healthcare) and Origin 8.0 (OriginLab).
On the technique in general: In SPR one partner is held on a chip, and binding of the other changes the refractive index at the surface.

As a reminder, the Kd is the constant that tells how readily two partners part at equilibrium. For the molecule `CCN(CC)C(=O)c1cnn2ccc(C3CCN(S(=O)(=O)c4ccc(NC(C)=O)cc4)CC3)cc12` [Compound Z271-0326, 5-(1-((4-acetamidophenyl)sulfonyl)piperidin-4-yl)-N,N-diethylpyrazolo[1,5-a]pyridine-3-carboxamide], the “inhibition of NACK binding to the Notch transcription complex” value in test [1] (293T cells transfected with N1ICD, Maml1, NACK, 2 hours treatment, FIG. 6A) is reported as “dramatically inhibit NACK binding to the NOTCH transcription complex”. The “recruitment of NACK to the Notch ternary complex” value in test [1] (WT NACK, FIG. 10D) was “block recruitment of NACK to the Notch ternary complex”. Moreover, in test [2], the “recruitment of NACK to the Notch complex” value is reported as “insensitive to inhibition”. Besides, in test [3], the “mRNA levels of Notch target genes Hes1 and Notch3” value was “decrease the mRNA levels of Notch target genes Hes1 and Notch3”. The Kd in test [4] was 0.89 ± 0.07 µM.
